# Data published in ChEMBL document CHEMBL3885881, “DrugMatrix”.
# Species: Rattus norvegicus
# Test: DrugMatrix - Regimen: Daily Repeat
# Assay type: toxicity, organism-based, Sprague-Dawley
# Set-up: regimen Daily Repeat, gender Male, age 6-8 weeks
# Details: in vivo, po, route oral GAVAGE, vehicle .5 % CMC; for ABSOLUTE BASOPHIL / ABSOLUTE EOSINOPHIL / ABSOLUTE LYMPHOCYTE / ABSOLUTE MONOCYTE / ABSOLUTE SEGMENTED NEUTROPHIL / BASOPHIL / EOSINOPHIL / ERYTHROCYTE COUNT / HEMATOCRIT / HEMOGLOBIN / LEUKOCYTE COUNT / LYMPHOCYTE / MEAN CORPUSCULAR HEMOGLOBIN / MEAN CORPUSCULAR HEMOGLOBIN CONCENTRATION / MEAN CORPUSCULAR VOLUME / MONOCYTE / NEUTROPHIL / NUCLEATED RED BLOOD CELLS / PLATELET COUNT: tissue Blood; for ALANINE AMINOTRANSFERASE / ALBUMIN / ALKALINE PHOSPHATASE / ASPARTATE AMINOTRANSFERASE / BLOOD UREA NITROGEN / CARBON DIOXIDE / CHLORIDE / CHOLESTEROL / CREATINE PHOSPHOKINASE / CREATININE / GLUCOSE / LACTATE DEHYDROGENASE / LIPASE / PHOSPHORUS / POTASSIUM / SODIUM / TOTAL BILIRUBIN / TOTAL PROTEIN / URIC ACID: tissue Plasma
# [1] = 0 mg/kg, 72 h, dose level Control, time 3 day
# [2] = 0 mg/kg, 120 h, dose level Control, time 5 day
# [3] = 200 mg/kg, 72 h, dose level Low, time 3 day
smiles,measurement,setting,value
CCn1cc(C(=O)O)c(=O)c2cc(F)c(N3CCNCC3)cc21 [NORFLOXACIN],ABSOLUTE BASOPHIL,[1],0 CELLS/uL
same,ABSOLUTE EOSINOPHIL,[1],0 CELLS/uL
same,ABSOLUTE LYMPHOCYTE,[1],12269.67 CELLS/uL
same,ABSOLUTE MONOCYTE,[1],160.33 CELLS/uL
same,ABSOLUTE SEGMENTED NEUTROPHIL,[1],970 CELLS/uL
same,BASOPHIL,[1],0%
same,EOSINOPHIL,[1],0%
same,ERYTHROCYTE COUNT,[1],5.76 x10E6/uL
same,HEMATOCRIT,[1],36.57%
same,HEMOGLOBIN,[1],14.22 G/DL
same,LEUKOCYTE COUNT,[1],13.4 x10E3/uL
same,LYMPHOCYTE,[1],91.67%
same,MEAN CORPUSCULAR HEMOGLOBIN,[1],24.67 pg
same,MEAN CORPUSCULAR HEMOGLOBIN CONCENTRATION,[1],38.85 G/DL
same,MEAN CORPUSCULAR VOLUME,[1],63.52 fL
same,MONOCYTE,[1],1.17%
same,NEUTROPHIL,[1],7.17%
same,NUCLEATED RED BLOOD CELLS,[1],0.33 /100WBC
same,PLATELET COUNT,[1],1250.83 x10E3/uL
same,ALANINE AMINOTRANSFERASE,[1],49.17 u/L
same,ALBUMIN,[1],4.33 G/DL
same,ALKALINE PHOSPHATASE,[1],378.5 u/L
same,ASPARTATE AMINOTRANSFERASE,[1],82.17 u/L
same,BLOOD UREA NITROGEN,[1],15 mg/dL
same,CARBON DIOXIDE,[1],34.33 mmol/L
same,CHLORIDE,[1],99.17 MEQ/L
same,CHOLESTEROL,[1],71.17 mg/dL
same,CREATINE PHOSPHOKINASE,[1],258.67 u/L
same,CREATININE,[1],0.18 mg/dL
same,GLUCOSE,[1],142.67 mg/dL
same,LACTATE DEHYDROGENASE,[1],154.33 u/L
same,LIPASE,[1],9 u/L
same,PHOSPHORUS,[1],11.67 mg/dL
same,POTASSIUM,[1],7.13 MEQ/L
same,SODIUM,[1],142.22 MEQ/L
same,TOTAL BILIRUBIN,[1],0.18 mg/dL
same,TOTAL PROTEIN,[1],5.77 G/DL
same,URIC ACID,[1],1.55 mg/dL
same,ABSOLUTE BASOPHIL,[2],0 CELLS/uL
same,ABSOLUTE EOSINOPHIL,[2],23.33 CELLS/uL
same,ABSOLUTE LYMPHOCYTE,[2],14943.67 CELLS/uL
same,ABSOLUTE MONOCYTE,[2],32 CELLS/uL
same,ABSOLUTE SEGMENTED NEUTROPHIL,[2],1084.33 CELLS/uL
same,BASOPHIL,[2],0%
same,EOSINOPHIL,[2],0.17%
same,ERYTHROCYTE COUNT,[2],5.71 x10E6/uL
same,HEMATOCRIT,[2],35.28%
same,HEMOGLOBIN,[2],14.27 G/DL
same,LEUKOCYTE COUNT,[2],16.08 x10E3/uL
same,LYMPHOCYTE,[2],93%
same,MEAN CORPUSCULAR HEMOGLOBIN,[2],25.02 pg
same,MEAN CORPUSCULAR HEMOGLOBIN CONCENTRATION,[2],40.43 G/DL
same,MEAN CORPUSCULAR VOLUME,[2],61.82 fL
same,MONOCYTE,[2],0.17%
same,NEUTROPHIL,[2],6.67%
same,NUCLEATED RED BLOOD CELLS,[2],0.33 /100WBC
same,PLATELET COUNT,[2],1274 x10E3/uL
same,ALANINE AMINOTRANSFERASE,[2],54.17 u/L
same,ALBUMIN,[2],4.22 G/DL
same,ALKALINE PHOSPHATASE,[2],373.17 u/L
same,ASPARTATE AMINOTRANSFERASE,[2],81.83 u/L
same,BLOOD UREA NITROGEN,[2],16.67 mg/dL
same,CARBON DIOXIDE,[2],30.33 mmol/L
same,CHLORIDE,[2],99 MEQ/L
same,CHOLESTEROL,[2],71 mg/dL
same,CREATINE PHOSPHOKINASE,[2],273.5 u/L
same,CREATININE,[2],0.22 mg/dL
same,GLUCOSE,[2],141.83 mg/dL
same,LACTATE DEHYDROGENASE,[2],153.67 u/L
same,LIPASE,[2],10.33 u/L
same,PHOSPHORUS,[2],11.38 mg/dL
same,POTASSIUM,[2],7.08 MEQ/L
same,SODIUM,[2],142.75 MEQ/L
same,TOTAL BILIRUBIN,[2],0.18 mg/dL
same,TOTAL PROTEIN,[2],6.1 G/DL
same,URIC ACID,[2],1.67 mg/dL
same,ABSOLUTE BASOPHIL,[3],0 CELLS/uL
same,ABSOLUTE EOSINOPHIL,[3],0 CELLS/uL
same,ABSOLUTE LYMPHOCYTE,[3],11949 CELLS/uL
same,ABSOLUTE MONOCYTE,[3],111 CELLS/uL
same,ABSOLUTE SEGMENTED NEUTROPHIL,[3],1006.67 CELLS/uL
same,BASOPHIL,[3],0%
same,EOSINOPHIL,[3],0%
same,ERYTHROCYTE COUNT,[3],5.6 x10E6/uL
same,HEMATOCRIT,[3],36.17%
same,HEMOGLOBIN,[3],14.13 G/DL
same,LEUKOCYTE COUNT,[3],13.07 x10E3/uL
same,LYMPHOCYTE,[3],91.67%
same,MEAN CORPUSCULAR HEMOGLOBIN,[3],25.27 pg
same,MEAN CORPUSCULAR HEMOGLOBIN CONCENTRATION,[3],39.07 G/DL
same,MEAN CORPUSCULAR VOLUME,[3],64.63 fL
same,MONOCYTE,[3],1%
same,NEUTROPHIL,[3],7.33%
same,NUCLEATED RED BLOOD CELLS,[3],0 /100WBC
same,PLATELET COUNT,[3],1470.67 x10E3/uL
same,ALANINE AMINOTRANSFERASE,[3],63.33 u/L
same,ALBUMIN,[3],4.33 G/DL
same,ALKALINE PHOSPHATASE,[3],468 u/L
same,ASPARTATE AMINOTRANSFERASE,[3],89 u/L
same,BLOOD UREA NITROGEN,[3],13.67 mg/dL
same,CARBON DIOXIDE,[3],28 mmol/L
same,CHLORIDE,[3],102 MEQ/L
same,CHOLESTEROL,[3],54.33 mg/dL
same,CREATINE PHOSPHOKINASE,[3],294 u/L
same,CREATININE,[3],0.26 mg/dL
same,GLUCOSE,[3],137.33 mg/dL
same,LACTATE DEHYDROGENASE,[3],260.67 u/L
same,LIPASE,[3],10 u/L
same,PHOSPHORUS,[3],13.5 mg/dL
same,POTASSIUM,[3],6.81 MEQ/L
same,SODIUM,[3],146.4 MEQ/L
same,TOTAL BILIRUBIN,[3],0.23 mg/dL
same,TOTAL PROTEIN,[3],6 G/DL
same,URIC ACID,[3],2.13 mg/dL
